Data reported in the OPERA property sets (Mansouri et al. 2018).

Row | Compound | logP
1 | CCN(CC)C(=O)NS(=O)(=O)c1ccccc1 | 0.99
2 | CC(C)NC(=O)NS(=O)(=O)c1ccccc1 | 1.34
3 | CNC(=O)NS(=O)(=O)c1cccnc1 | -0.45
4 | CNC(=O)NS(=O)(=O)c1ccccc1 | 0.44
5 | NC(=O)NS(=O)(=O)c1ccccc1 | 0.28
6 | CN(C)C(=O)NS(=O)(=O)Cc1ccccc1 | 0.54
7 | CNC(=O)N(C)S(=O)(=O)Cc1ccccc1 | 1.18
8 | CC(C)(C)NC(=O)NS(=O)(=O)c1ccccc1 | 1.95
9 | NC(=O)NS(=O)(=O)c1cccnc1 | -0.65
10 | CCCNC(=O)NS(=O)(=O)c1ccccc1 | 1.44
11 | CNC(=O)NS(=O)(=O)Cc1ccccc1 | 0.54
12 | CCNC(=O)NS(=O)(=O)c1ccccc1 | 0.9
13 | CN(C)C(=O)NS(=O)(=O)c1ccccc1 | 0.28
14 | CNC(=O)N(C)S(=O)(=O)c1cccnc1 | 0.42
